Source: US7989462B2, “4-arylamin-or-4-heteroarylamino-quinazolines and analogs as activators of caspases and inducers of apoptosis and the use thereof” (Myrexis, Inc., priority 2003, dated 2011)

Test system: T-47D
Experiment: Caspase cascade activation in T-47D solid tumor cells (fluorogenic N-(Ac-DEVD)-N'-ethoxycarbonyl-R110 substrate)
Assay type: cell-based, Human
Details: T-47D (24 hr); for EC50: Homo sapiens, T47D, read-out: Caspase Potency EC50; for Caspase Activity Ratio: ratio of net RFU of test compound to that of control samples
Protocol: Human breast cancer cell lines T-47D and DLD-1 were grown according to media component mixtures designated by American Type Culture Collection+10% FCS (Invitrogen Corporation), in a 5% CO2-95% humidity incubator at 37° C. T-47D and DLD-1 cells were maintained at a cell density between 50 and 80% confluency at a cell density of 0.1 to 0.6×10^6 cells/mL. Cells were harvested at 600×g and resuspended at 0.65×10^6 cells/mL into appropriate media+10% FCS. An aliquot of 22.5 μL of cells was added to a well of a 384-well microtiter plate containing 2.5 μL of a 10% DMSO in RPMI-1640 media solution containing 0.16 to 100 μM of (2-chloro-quinazolin-4-yl)-(4-dimethylaminophenyl)-methylamine or other test compound (0.016 to 10 μM final). An aliquot of 22.5 μL of cells was added to a well of a 384-well microtiter plate containing 2.5 μL of a 10% DMSO in RPMI-1640 media solution without test compound as the control sample. […] After incubation, the samples were removed from the incubator and 25 μL of a solution containing 14 μM of N-(Ac-DEVD)-N′-ethoxycarbonyl-R110 fluorogenic substrate (Cytovia, Inc.; WO99/18856), 20% sucrose (Sigma), 20 mM DTT (Sigma), 200 mM NaCl (Sigma), 40 mM Na PIPES buffer pH 7.2 (Sigma), and 500 μg/mL lysolecithin (Calbiochem) was added. The samples were mixed by agitation and incubated at room temperature. Using a fluorescent plate reader (Model SPECTRAfluor Plus, Tecan), an initial reading (T=0) was made approximately 1-2 min after addition of the substrate solution, employing excitation at 485 nm and emission at 530 nm, to determine the background fluorescence of the control sample. After the 3 h incubation, the samples were read for fluorescence as above (T=3 h).
The Relative Fluorescence Unit values (RFU) were used to calculate the sample readings as follows: RFU(T=3h)−Control RFU(T=0)=Net RFU(T=3h)
The activity of caspase cascade activation was determined by the ratio of the net RFU value for (2-chloro-quinazolin-4-yl)-(4-dimethylaminophenyl)-methylamine or other test compounds to that of control samples. The EC50 (nM) was determined by a sigmoidal dose-response calculation (Prism 3.0, GraphPad Software Inc.).

Row | EC50 | Compound | Caspase Activity Ratio
1 | > 10000 nM | COc1cc(Nc2nc(C)nc3ccccc23)cc(OC)c1OC [Example 38, (2-Methyl-quinazolin-4-yl)-(3,4,5-trimethoxy-phenyl)-amine] | 0.9
2 | 290 nM | COc1ccc(N(C)c2nc(C)nc3ccc(N(C)C(C)=O)cc23)cc1 [Example 40, (6-N-methyl-acetamido-2-methyl-quinazolin-4-yl)-(4-methoxy-phenyl)-methylamine] | 2.7
3 | 27 nM | COc1ccc(N(C)c2nc(NC(C)=O)nc3ccccc23)cc1 [Example 41, (2-Acetamido-quinazolin-4-yl)-(4-methoxy-phenyl)-methylamine] | 3.5
